Source: patent publication US8153808B2, “Dihydropyridone amides as P2X7 modulators” (Roche Palo Alto LLC, priority 2008, dated 2012)

Biological target: T1, P2X7 (UniProt Q99572)
T1 sequence (Q99572 1-595): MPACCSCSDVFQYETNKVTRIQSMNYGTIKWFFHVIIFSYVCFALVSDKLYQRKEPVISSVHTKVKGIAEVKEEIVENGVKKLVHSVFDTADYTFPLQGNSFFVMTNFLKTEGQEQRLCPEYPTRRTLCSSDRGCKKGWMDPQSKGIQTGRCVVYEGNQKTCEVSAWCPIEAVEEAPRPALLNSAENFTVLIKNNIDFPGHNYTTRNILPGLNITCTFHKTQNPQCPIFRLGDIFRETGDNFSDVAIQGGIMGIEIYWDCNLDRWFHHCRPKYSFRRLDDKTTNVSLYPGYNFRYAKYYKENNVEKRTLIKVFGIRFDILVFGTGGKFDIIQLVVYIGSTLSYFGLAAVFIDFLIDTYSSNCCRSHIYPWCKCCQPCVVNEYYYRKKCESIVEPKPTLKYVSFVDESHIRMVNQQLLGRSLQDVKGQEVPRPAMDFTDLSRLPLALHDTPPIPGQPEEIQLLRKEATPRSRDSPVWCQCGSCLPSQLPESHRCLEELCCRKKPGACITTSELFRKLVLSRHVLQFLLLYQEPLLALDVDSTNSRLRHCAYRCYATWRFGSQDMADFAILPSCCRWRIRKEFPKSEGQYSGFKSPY
Experiment: pIC50 values for P2X7 (Table 1)
Format: cell-based
Description: Intracellular Calcium Flux (FLIPR) Assay
Stock solutions of compounds were prepared from powders as a 10 mM DMSO stock solution. These solutions were stored at RT during the two week period of these experiments to prevent freeze-thaw of the DMSO stocks. The DMSO stocks were added to the appropriate assay buffer at a concentration of 10 μM, and then diluted serially to the final concentrations that were tested. […] The aqueous solutions of compounds as well as ATP (Sigma A7699) and BzATP (Sigma B6396) were prepared fresh for each day of experiment.
1321N1 cells stably expressing the full length human P2X7 gene (1321N1-hP2X7) and HEK293 cells stably expressing the full length rat P2X7 gene (HEK293-rP2X7) were obtained from the Roche Cell Culture Facility. 1321N1-hP2X7 cells were grown in Dulbecco's Modified Eagle's Medium (DMEM) high glucose supplemented with 10% FBS and 250 μg/mL G418. HEK293-rP2X7 cells were grown in DMEM/F-12 supplemented with 10% FBS, 1 mM CaCl2, 2 mM MgCl2, 2 mM L-Glutamine and 500 μg/ml G418. Cells were split such that they never became >70% confluent.
On the day prior to the experiment, 1321N1-hP2X7 or HEK293-rP2X7 cells were released into suspension with calcium-free PBS+Versene and washed by centrifugation with calcium-free PBS to remove the Versene. Cells were resuspended in growth medium at a density of 2.5×10^5 cells/mL and seeded into black walled, clear bottom 96 well plates (50,000 cells/well) approximately 18 hr prior to intracellular calcium flux experiments.
On the day of the experiment, plates were washed with FLIPR buffer (calcium- and magnesium-free Hank's Balanced Salt Solution (HBSS) supplemented with 10 mM Hepes, 2.5 mM probenecid and 2 mM calcium chloride) using a BIO-TEK 96 channel plate washer and incubated with […] fluo-3 dye at 37° C. for one hr. The dye was then removed by plate washing and the cells were allowed to equilibrate for 20 min at room temperature with antagonist or vehicle (FLIPR buffer). Agonist (100 μM BzATP final concentration for hP2X7; 5 μM BzATP final concentration or rP2X7) was added online with the FLIPR and fluorescence measurements made at 1 sec intervals for 60 sec followed by 3 sec intervals for a further 4 min (5 min total). A final addition of 5 μM ionomycin was made and the maximal BzATP-evoked fluorescence normalized to the maximal ionomycin-evoked fluorescence.

Row | pIC50 P2X7 | SMILES
1 | 5.94 | COc1cc(Br)c(CC(=O)N2C=CC(=O)CC2CC2CCCCC2)cc1OC (stereo not shown) [Compound 34, 1-[2-(2-Bromo-4,5-dimethoxy-phenyl)-acetyl]-2-cyclohexylmethyl-2,3-dihydro-1H-pyridin-4-one]
2 | 5.415 | COc1cccc(C2CC(=O)C=CN2C(=O)Cc2cc(OC)c(OC)cc2Br)c1 (stereo not shown) [Compound 28, 1-[2-(2-Bromo-4,5-dimethoxy-phenyl)-acetyl]-2-(3-methoxy-phenyl)-2,3-dihydro-1H-pyridin-4-one]
3 | 6.4 | COc1cc(F)c(CC(=O)N2C=CC(=O)C[C@H]2c2ccc(F)cc2)cc1OC [Compound 47, (S)-1-[2-(2-Fluoro-4,5-dimethoxy-phenyl)-acetyl]-2-(4-fluoro-phenyl)-2,3-dihydro-1H-pyridin-4-one]
4 | 6.4 | COc1cc(CC(=O)N2C=CC(=O)C[C@H]2c2ccc(F)cc2)c(Br)cc1Cl [Compound 30, (S)-1-[2-(2-Bromo-4-chloro-5-methoxy-phenyl)-acetyl]-2-(4-fluoro-phenyl)-2,3-dihydro-1H-pyridin-4-one]
